Drawing on US6734199B1, “Substituted benzylthiazolidine-2, 4-dione derivatives” (Kyorin Pharmaceutical Co., Ltd., priority 1999, dated 2004), this text covers EC50 and melting point for 5 molecules.

For orientation: EC50 means the concentration giving half of the maximal effect. As a reminder, the melting point is the temperature, or range, at which the solid turns liquid.

Where two headings read alike, the source gives them in different places.

Data set [1] has as its target T1, human type PPAR α ligand-binding domain fused with yeast transcription factor DNA-binding domain (Homo sapiens, UniProt Q07869).
T1 sequence (Q07869 239-466 limits assumed): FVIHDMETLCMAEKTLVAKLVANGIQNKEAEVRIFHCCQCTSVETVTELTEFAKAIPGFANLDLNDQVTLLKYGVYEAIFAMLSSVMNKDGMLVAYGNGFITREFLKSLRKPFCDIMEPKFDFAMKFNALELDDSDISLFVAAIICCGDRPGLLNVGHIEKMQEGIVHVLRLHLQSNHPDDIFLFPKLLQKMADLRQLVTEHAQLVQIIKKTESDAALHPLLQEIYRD
Description: Test of transactivation on peroxisome proliferator-activated receptor α (GAL4 DNA-binding domain/PPAR ligand-binding domain reporter in CHO cells).
Description: (§1) Test of Transactivation on Peroxisome Proliferator-activated Receptors α and γ
(§2) After 24 hours, CAT activity and β-galactosidase activity were measured.

Data set [2] addresses T2, human type PPAR γ ligand-binding domain fused with yeast transcription factor DNA-binding domain (Homo sapiens, UniProt P37231).
T2 sequence (P37231 238-503 limits assumed): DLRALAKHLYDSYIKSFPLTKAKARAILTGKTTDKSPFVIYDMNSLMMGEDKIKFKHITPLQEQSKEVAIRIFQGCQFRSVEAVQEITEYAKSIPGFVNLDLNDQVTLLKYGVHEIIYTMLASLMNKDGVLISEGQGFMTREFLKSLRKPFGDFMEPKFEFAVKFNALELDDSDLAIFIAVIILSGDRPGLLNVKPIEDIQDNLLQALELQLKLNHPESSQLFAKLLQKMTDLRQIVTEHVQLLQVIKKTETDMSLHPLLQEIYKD
Description: Test of transactivation on peroxisome proliferator-activated receptor γ (GAL4 DNA-binding domain/PPAR ligand-binding domain reporter in CHO cells).
Description: as §1, §2

As for `CCCCC/C=C\C/C=C\C=C\[C@@H](O)C/C=C\CCCC(=O)O` [(8S)-HETE, reference compound], the EC50 in data set [1] (read-out: Transactivation action PPARα EC50, CHO cells, 24 hours, CAT activity with β-galactosidase internal standard) was 1300 nM.
For the molecule `COc1ccc(CC2SC(=O)NC2=O)cc1C(=O)NCc1ccc(OCc2ccccc2)cc1` (stereo not drawn) [Example 1], the melting point lay in the range of 131 to 132.5 °C. This molecule also displayed a 50% effective concentration (EC50) in data set [1] of 440 nM.
Turning to `COc1ccc(CC2SC(=O)NC2=O)cc1C(=O)NCc1ccc(-c2ccccc2)cc1` (stereo not drawn) [Example 2, N-[(Biphenyl-4-yl)Methyl]-5-[(2.4-Dioxothiazolidin-5-yl)Methyl]-2-Methloybenzamide], the melting point fell in the range of 170.5 to 172 °C. This molecule yielded a 50% effective concentration (EC50) in data set [1] of 630 nM. For the same molecule, a half-maximal effect in data set [2] (EC50) was put at 6.8 µM.
`COc1ccc(CC2SC(=O)NC2=O)cc1C(=O)NCc1ccc(Oc2ccccc2)cc1` (stereo not drawn) (hydrate or solvate) [Example 3] returned a melting point of 87 to 89 °C.
In the case of `COc1ccc(CC2SC(=O)NC2=O)cc1C(=O)NCc1ccc(Oc2ccccc2)cc1` (stereo not drawn) [Example 3], the EC50 in data set [1] worked out at 240 nM; in data set [2], 0.24 µM.
